# According to the supplement of paper PMC10307832:
# Columns and labels:
# Assay in all cases: relative viability (nuclei count vs DMSO), 5 days (fraction); higher = more cells survive
# [1] = system: A-427
# Procedure, shortened: (§1)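 The day after seeding in 1536-well plates, lung cancer cell lines were treated by pin tool with a single drug, or with a fixed anchor-drug dose together with five library-drug doses (not always all listed) in √10 steps. After 5 days, a combined fix-and-stain solution (final 0.05% Triton X-100, 1% formaldehyde, 1 ug/ml Hoechst) was added. Nuclei counted on 4× images gave relative viability as treated counts over vehicle counts, reported as the median of duplicate plates.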
# [2] = system: ABC-1
# Procedure, shortened: as §1
# [3] = system: COR-L23
# Procedure, shortened: as §1
# [4] = system: EMC-BAC-2
# Procedure, shortened: as §1
# [5] = system: HARA
# Procedure, shortened: as §1
# [6] = system: HOP-62
# Procedure, shortened: as §1
# [7] = system: LK-2
# Procedure, shortened: as §1
# [8] = system: LU99A
# Procedure, shortened: as §1
# [9] = system: LXF-289
# Procedure, shortened: as §1
# [10] = system: NCI-H1792
# Procedure, shortened: as §1
# [11] = system: NCI-H1793
# Procedure, shortened: as §1
# [12] = system: NCI-H1944
# Procedure, shortened: as §1
# [13] = system: NCI-H1993
# Procedure, shortened: as §1
# [14] = system: NCI-H2009
# Procedure, shortened: as §1
# [15] = system: NCI-H2170
# Procedure, shortened: as §1
# [16] = system: NCI-H2228
# Procedure, shortened: as §1
# [17] = system: NCI-H3122
# Procedure, shortened: as §1
# [18] = system: NCI-H596
# Procedure, shortened: as §1
# [19] = system: NCI-H727
# Procedure, shortened: as §1
# [20] = system: PC-3 [JPC-3]
# Procedure, shortened: as §1
# [21] = system: SK-LU-1
# Procedure, shortened: as §1
# [22] = system: SK-MES-1
# Procedure, shortened: as §1
# [23] = system: SW 1573
# Procedure, shortened: as §1
# [24] = system: SW 900
# Procedure, shortened: as §1
smiles,measurement,setting,value
CC(C)Oc1cc(Nc2nc(N[C@@H](C)c3ccc(F)cn3)ncc2Cl)n[nH]1 [AZ23] + CCNC(=O)c1noc(-c2cc(C(C)C)c(O)cc2O)c1-c1ccc(CN2CCOCC2)cc1 [Luminespib] (partner 0.01 µM),relative viability,[1]; first compound 0.01 µM,0.844
same,relative viability,[1]; first compound 0.03162 µM,1.03
same,relative viability,[1]; first compound 0.3162 µM,1.03
same,relative viability,[2]; first compound 0.03162 µM,0.707
same,relative viability,[2]; first compound 0.3162 µM,0.624
same,relative viability,[3]; first compound 0.01 µM,0.405
same,relative viability,[3]; first compound 0.03162 µM,0.814
same,relative viability,[3]; first compound 0.3162 µM,0.869
same,relative viability,[4]; first compound 0.01 µM,1.11
same,relative viability,[4]; first compound 0.03162 µM,1.3
same,relative viability,[4]; first compound 0.3162 µM,1.23
same,relative viability,[5]; first compound 0.03162 µM,0.822
same,relative viability,[5]; first compound 0.3162 µM,1.34
same,relative viability,[6]; first compound 0.01 µM,0.841
same,relative viability,[6]; first compound 0.03162 µM,0.981
same,relative viability,[6]; first compound 0.3162 µM,1.01
same,relative viability,[7]; first compound 0.01 µM,0.185
same,relative viability,[7]; first compound 0.03162 µM,0.189
same,relative viability,[7]; first compound 0.3162 µM,0.177
same,relative viability,[8]; first compound 0.01 µM,0.217
same,relative viability,[8]; first compound 0.03162 µM,0.188
same,relative viability,[8]; first compound 0.3162 µM,0.298
same,relative viability,[9]; first compound 0.01 µM,0.884
same,relative viability,[9]; first compound 0.03162 µM,0.745
same,relative viability,[9]; first compound 0.3162 µM,0.598
same,relative viability,[10]; first compound 0.01 µM,0.305
same,relative viability,[10]; first compound 0.03162 µM,0.646
same,relative viability,[10]; first compound 0.3162 µM,0.466
same,relative viability,[11]; first compound 0.01 µM,0.158
same,relative viability,[11]; first compound 0.03162 µM,0.194
same,relative viability,[11]; first compound 0.3162 µM,0.143
same,relative viability,[12]; first compound 0.01 µM,0.557
same,relative viability,[12]; first compound 0.03162 µM,0.75
same,relative viability,[12]; first compound 0.3162 µM,0.726
same,relative viability,[13]; first compound 0.01 µM,0.785
same,relative viability,[13]; first compound 0.03162 µM,0.881
same,relative viability,[13]; first compound 0.3162 µM,0.854
same,relative viability,[14]; first compound 0.01 µM,1.05
same,relative viability,[14]; first compound 0.03162 µM,1.17
same,relative viability,[14]; first compound 0.3162 µM,1.1
same,relative viability,[15]; first compound 0.01 µM,1.01
same,relative viability,[15]; first compound 0.03162 µM,0.739
same,relative viability,[15]; first compound 0.3162 µM,0.822
same,relative viability,[16]; first compound 0.01 µM,0.179
same,relative viability,[16]; first compound 0.03162 µM,0.141
same,relative viability,[16]; first compound 0.3162 µM,0.0999
same,relative viability,[17]; first compound 0.01 µM,0.111
same,relative viability,[17]; first compound 0.03162 µM,0.0892
same,relative viability,[17]; first compound 0.3162 µM,0.0986
same,relative viability,[18]; first compound 0.01 µM,1.13
same,relative viability,[18]; first compound 0.03162 µM,1.06
same,relative viability,[18]; first compound 0.3162 µM,0.857
same,relative viability,[19]; first compound 0.01 µM,0.354
same,relative viability,[19]; first compound 0.03162 µM,0.311
same,relative viability,[19]; first compound 0.3162 µM,0.454
same,relative viability,[20]; first compound 0.01 µM,0.581
same,relative viability,[20]; first compound 0.03162 µM,0.582
same,relative viability,[20]; first compound 0.3162 µM,0.637
same,relative viability,[21]; first compound 0.03162 µM,0.216
same,relative viability,[21]; first compound 0.3162 µM,0.18
same,relative viability,[22]; first compound 0.03162 µM,0.834
same,relative viability,[22]; first compound 0.3162 µM,0.952
same,relative viability,[23]; first compound 0.01 µM,0.189
same,relative viability,[23]; first compound 0.03162 µM,0.164
same,relative viability,[23]; first compound 0.3162 µM,0.227
same,relative viability,[24]; first compound 0.01 µM,0.174
same,relative viability,[24]; first compound 0.03162 µM,0.143
same,relative viability,[24]; first compound 0.3162 µM,0.174
CC(C)Oc1cc(Nc2nc(N[C@@H](C)c3ccc(F)cn3)ncc2Cl)n[nH]1 [AZ23] + COc1cccc2cc(-c3nc([C@H]4CC[C@H](C(=O)O)CC4)n4ncnc(N)c34)[nH]c12 [OSI-027] (partner 0.5 µM),relative viability,[1]; first compound 0.01 µM,0.37
same,relative viability,[1]; first compound 0.03162 µM,0.448
same,relative viability,[1]; first compound 0.3162 µM,0.34
same,relative viability,[2]; first compound 0.01 µM,0.398
same,relative viability,[2]; first compound 0.03162 µM,0.408
same,relative viability,[2]; first compound 0.3162 µM,0.469
same,relative viability,[3]; first compound 0.01 µM,0.758
same,relative viability,[3]; first compound 0.03162 µM,0.868
same,relative viability,[3]; first compound 0.3162 µM,0.822
same,relative viability,[4]; first compound 0.01 µM,0.373
same,relative viability,[4]; first compound 0.03162 µM,0.42
same,relative viability,[4]; first compound 0.3162 µM,0.365
same,relative viability,[5]; first compound 0.03162 µM,0.686
same,relative viability,[5]; first compound 0.3162 µM,0.415
same,relative viability,[6]; first compound 0.01 µM,0.853
same,relative viability,[6]; first compound 0.03162 µM,0.924
same,relative viability,[6]; first compound 0.3162 µM,0.973
same,relative viability,[7]; first compound 0.01 µM,0.176
same,relative viability,[7]; first compound 0.03162 µM,0.198
same,relative viability,[7]; first compound 0.3162 µM,0.183
same,relative viability,[8]; first compound 0.01 µM,0.264
same,relative viability,[8]; first compound 0.03162 µM,0.312
same,relative viability,[8]; first compound 0.3162 µM,0.286
same,relative viability,[9]; first compound 0.01 µM,0.862
same,relative viability,[9]; first compound 0.03162 µM,0.857
same,relative viability,[9]; first compound 0.3162 µM,0.96
same,relative viability,[10]; first compound 0.01 µM,0.752
same,relative viability,[10]; first compound 0.03162 µM,0.782
same,relative viability,[10]; first compound 0.3162 µM,0.841
same,relative viability,[11]; first compound 0.01 µM,0.226
same,relative viability,[11]; first compound 0.03162 µM,0.303
same,relative viability,[11]; first compound 0.3162 µM,0.28
same,relative viability,[12]; first compound 0.01 µM,0.401
same,relative viability,[12]; first compound 0.03162 µM,0.456
same,relative viability,[12]; first compound 0.3162 µM,0.498
same,relative viability,[13]; first compound 0.01 µM,0.581
same,relative viability,[13]; first compound 0.03162 µM,0.559
same,relative viability,[13]; first compound 0.3162 µM,0.529
same,relative viability,[14]; first compound 0.01 µM,0.651
same,relative viability,[14]; first compound 0.03162 µM,0.706
same,relative viability,[14]; first compound 0.3162 µM,0.765
same,relative viability,[15]; first compound 0.01 µM,0.664
same,relative viability,[15]; first compound 0.03162 µM,0.722
same,relative viability,[15]; first compound 0.3162 µM,0.726
same,relative viability,[16]; first compound 0.01 µM,0.785
same,relative viability,[16]; first compound 0.03162 µM,0.776
same,relative viability,[16]; first compound 0.3162 µM,0.671
same,relative viability,[17]; first compound 0.01 µM,1.12
same,relative viability,[17]; first compound 0.03162 µM,1.12
same,relative viability,[17]; first compound 0.3162 µM,1.12
same,relative viability,[18]; first compound 0.01 µM,0.711
same,relative viability,[18]; first compound 0.03162 µM,0.834
same,relative viability,[18]; first compound 0.3162 µM,0.671
same,relative viability,[19]; first compound 0.01 µM,0.496
same,relative viability,[19]; first compound 0.03162 µM,0.558
same,relative viability,[19]; first compound 0.3162 µM,0.605
same,relative viability,[20]; first compound 0.01 µM,0.857
same,relative viability,[20]; first compound 0.03162 µM,0.71
same,relative viability,[20]; first compound 0.3162 µM,0.742
same,relative viability,[21]; first compound 0.03162 µM,0.403
same,relative viability,[21]; first compound 0.3162 µM,0.379
same,relative viability,[22]; first compound 0.03162 µM,0.711
same,relative viability,[22]; first compound 0.3162 µM,0.745
same,relative viability,[23]; first compound 0.01 µM,0.925
same,relative viability,[23]; first compound 0.03162 µM,0.7
same,relative viability,[23]; first compound 0.3162 µM,0.649
same,relative viability,[24]; first compound 0.01 µM,0.512
same,relative viability,[24]; first compound 0.03162 µM,0.663
same,relative viability,[24]; first compound 0.3162 µM,0.579
